Assay results reported in ChEMBL document CHEMBL1955805, “New aromatase inhibitors from the 3-pyridyl arylether and 1-aryl pyrrolo[2,3-c]pyridine series” (Bioorg Med Chem Lett, 2012).

Legend:
aromatase (CYP19) = target: T1, aromatase (CYP19) (Homo sapiens, UniProt P11511); assay: Inhibition of human aromatase coexpressed with P450 reductase at 1 uM by fluorimetry; conditions: recombinant human aromatase coexpressed with P450 reductase
T1 sequence (P11511 whole entry): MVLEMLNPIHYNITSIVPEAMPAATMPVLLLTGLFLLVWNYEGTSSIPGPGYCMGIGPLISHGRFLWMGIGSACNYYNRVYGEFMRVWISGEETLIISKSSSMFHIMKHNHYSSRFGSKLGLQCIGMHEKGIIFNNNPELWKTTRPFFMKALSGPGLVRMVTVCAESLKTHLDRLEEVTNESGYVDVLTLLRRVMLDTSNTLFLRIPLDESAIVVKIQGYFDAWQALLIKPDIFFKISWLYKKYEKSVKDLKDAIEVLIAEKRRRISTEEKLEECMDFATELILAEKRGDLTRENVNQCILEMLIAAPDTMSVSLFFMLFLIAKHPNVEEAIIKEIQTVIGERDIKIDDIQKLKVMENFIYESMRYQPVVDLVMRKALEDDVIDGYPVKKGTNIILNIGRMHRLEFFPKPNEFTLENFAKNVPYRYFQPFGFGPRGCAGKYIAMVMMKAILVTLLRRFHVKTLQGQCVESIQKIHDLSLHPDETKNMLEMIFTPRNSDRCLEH

Aromatase = target: T2, Aromatase (Homo sapiens, UniProt P11511); assay: Inhibition of human aromatase coexpressed with P450 reductase by fluorimetry
T2 sequence (P11511 whole entry): T1 sequence (P11511 whole entry)

Homo sapiens [1] = species: Homo sapiens; assay: Selectivity ratio of IC50 for CYP3A4 to IC50 for human aromatase
Homo sapiens [2] = species: Homo sapiens; assay: Selectivity ratio of IC50 for CYP2C9 to IC50 for human aromatase
Homo sapiens [3] = species: Homo sapiens; assay: Selectivity ratio of IC50 for CYP2D6 to IC50 for human aromatase

Structure (SMILES): Brc1ccc(-n2ccc3ccncc32)cc1
- inhibition at 1 µM (aromatase (CYP19)): 56%

Structure (SMILES): Cc1cc(-n2ccc3ccncc32)ccc1Cl
- IC50 (Aromatase): 59 nM
- inhibition at 1 µM (aromatase (CYP19)): 96%

Structure (SMILES): N#Cc1ccc(Oc2cccnc2)cc1Oc1cccnc1
- IC50 (Aromatase): 304 nM
- inhibition at 1 µM (aromatase (CYP19)): 81%

Structure (SMILES): N#Cc1ccc(Oc2cccnc2)cc1NC1CCCCC1
- inhibition at 1 µM (aromatase (CYP19)): 33%

Structure (SMILES): N#Cc1ccc(Oc2cccnn2)cc1
- inhibition at 1 µM (aromatase (CYP19)): 1%

Structure (SMILES): N#Cc1ccc(-n2ccc3ccncc32)cc1Oc1ccccc1
- IC50 (Aromatase): 114 nM
- inhibition at 1 µM (aromatase (CYP19)): 97%

Structure (SMILES): N#Cc1ccc(Oc2cccnc2)cc1F
- inhibition at 1 µM (aromatase (CYP19)): 15%

Structure (SMILES): N#Cc1ccc(Oc2cccnc2)c(Oc2cccc(Cl)c2)c1
- IC50 (Aromatase): 229 nM
- inhibition at 1 µM (aromatase (CYP19)): 89%

Structure (SMILES): N#Cc1ccc(Oc2cccnc2)c(Oc2cccnc2)c1
- inhibition at 1 µM (aromatase (CYP19)): 82%

Structure (SMILES): NC(=O)c1ccc(-n2ccc3ccncc32)cc1
- inhibition at 1 µM (aromatase (CYP19)): 60%

Structure (SMILES): CN1CCN(c2cc(Oc3cccnc3)ccc2C#N)CC1
- inhibition at 1 µM (aromatase (CYP19)): 8%

Structure (SMILES): N#Cc1ccc(Oc2cccnc2)cc1C#N
- IC50 (Aromatase): 5030 nM
- inhibition at 1 µM (aromatase (CYP19)): 27%

Structure (SMILES): N#Cc1ccc(Oc2cccnc2)c(F)c1
- inhibition at 1 µM (aromatase (CYP19)): 52%

Structure (SMILES): N#Cc1ccc(Oc2cccnc2)cc1NCc1ccccc1
- IC50 (Aromatase): 986 nM
- inhibition at 1 µM (aromatase (CYP19)): 58%

Structure (SMILES): N#Cc1ccc(Oc2cccnc2)cc1Oc1cccc(Cl)c1
- inhibition at 1 µM (aromatase (CYP19)): 25%

Structure (SMILES): N#Cc1ccc(Cn2cncn2)cc1
- inhibition at 1 µM (aromatase (CYP19)): 88%

Structure (SMILES): N#Cc1ccc(Oc2cccnc2)cc1Oc1ccccc1
- inhibition at 1 µM (aromatase (CYP19)): 78%

Structure (SMILES): Clc1ccc(-n2ccc3ccncc32)cc1
- IC50 (Aromatase): 523 nM
- inhibition at 1 µM (aromatase (CYP19)): 85%

Structure (SMILES): N#Cc1ccc(-n2ccc3ccncc32)cc1
- IC50 (Aromatase): 93 nM
- inhibition at 1 µM (aromatase (CYP19)): 94%
- Ratio IC50 (Homo sapiens [1]): > 200
- Ratio IC50 (Homo sapiens [2]): > 200
- Ratio IC50 (Homo sapiens [3]): > 200

Structure (SMILES): N#Cc1ccc(Oc2ccncc2)cc1
- inhibition at 1 µM (aromatase (CYP19)): 53%

Structure (SMILES): COc1ccc(Oc2cc(Oc3cccnc3)ccc2C#N)cc1
- inhibition at 1 µM (aromatase (CYP19)): 84%

Structure (SMILES): Ic1ccc(-n2ccc3ccncc32)cc1
- inhibition at 1 µM (aromatase (CYP19)): 26%

Structure (SMILES): Cc1cc(-n2ccc3ccncc32)ccc1C#N
- inhibition at 1 µM (aromatase (CYP19)): > 99%

Structure (SMILES): N#Cc1ccc(Oc2cccnc2)cc1
- IC50 (Aromatase): 289 nM
- inhibition at 1 µM (aromatase (CYP19)): 70%
